In patent publication US12583872B2, “Photosensitizer compounds, methods of manufacture and application to plants” (NUTRIEN AG SOLUTIONS (CANADA) INC., priority 2019, dated 2026):

Columns and labels:
[1] = system: dollar spot fungus (Sclerotinia homoeocarpa); assay: Dollar spot fungus agar plate assay (amended PDA, radial growth); format: cell-based; details: for inhibition at 10 µM: Clarireedia homoeocarpa
Procedure: Control of dollar spot fungus (Sclerotinia homoeocarpa) with Ce6-mix-DMAE^15,17 amide and Ce6Na3 (comparative) was assessed. Treatments were amended into Potato Dextrose Agar (PDA) at desired concentrations. Then, a 5 mm diameter plug of a Sclerotinia homoeocarpa isolate (3 isolates total tested) was inoculated into the center of the amended Petri-dish and incubated at 21° C. in the dark for 24 h. After 24 h, one set of Petri-dishes (in triplicate) was left in the dark (no light) and one set was placed under illumination (light) for the remainder of the experiment (all at 21° C.). Radial growth of the fungus was monitored daily until the growth of S. homoeocarpa on non-amended PDA reached the edge of the Petri-dish. Illumination was provided by fluorescent lights emitting about 180 μmol/m^2/s photosynthetically active radiation (PAR).
Agar protocol: control of dollar spot fungus (Sclerotinia homoeocarpa) with modified Ce6 was assessed. Treatments were amended into Potato Dextrose Agar (PDA) at desired concentrations. Then, a 5 mm diameter plug of a Sclerotinia homoeocarpa isolate (3 isolates total tested) was inoculated into the center of the amended Petri-dish and incubated at 21° C. in the dark for 24 hours. After 24 hours, one set of Petri-dishes (in triplicate) was left in the dark and one set was placed under illumination for the remainder of the experiment (all at 21° C.). Radial growth of the fungus was monitored daily until the growth of S. homoeocarpa on non-amended PDA reaches the edge of the Petri-dish. Illumination was provided by fluorescent lights emitting about 180 μmol/m2/s photosynthetically active radiation (PAR).

[2] = system: dollar spot fungus (Sclerotinia homoeocarpa); assay: Dollar spot fungus broth protocol (PBS treatment, then radial growth on PDA); format: cell-based; details: Broth data; for inhibition at 100 µM: Clarireedia homoeocarpa
Procedure: Broth protocol: control of dollar spot fungus (Sclerotinia homoeocarpa) with modified chlorins was assessed. Treatments were prepared in Phosphate Buffered Saline (PBS) in 24 well plates (in duplicates for light vs. dark incubation) at desired concentrations. Then, a 5 mm diameter plug of a Sclerotinia homoeocarpa isolate (3 isolates total tested) was inoculated into the PBS and incubated at 21° C. in the dark for 2 hours. After 2 hours, one of the 24 well plates (with isolates in triplicate) was left in the dark and one 24 well plate was placed under illumination for 1 hour (all at 21° C.). Following illumination, fungal plugs were removed from PBS, blotted dry on sterile filter paper and transferred to non-amended Potato Dextrose Agar (PDA). Radial growth of the fungus was monitored daily until the growth of S. homoeocarpa reached the edge of the Petri-dish. Illumination was provided by LED lights emitting about 1000 μmol/m2/s photosynthetically active radiation (PAR).

[3] = system: Pseudomonas syringae pv. tabaci; assay: Relative inactivation of Pseudomonas syringae pv. tabaci in PBS (CFU count); format: cell-based; details: for Relative Inactivation (log[CFUcontrol mL^−1] − log[CFUtreatment mL^−1]): concentration not given; for Killing of bacteria: light treatment
Procedure: Experiments were conducted to evaluate control of the gram-negative bacterial plant pathogen Pseudomonas syringae pv. tabaci with modified Ce6. Treatments were prepared in Phosphate Buffered Saline (PBS) in 96 well plates at desired concentrations. A bacterial suspension was inoculated into the PBS and incubated at 28° C. in the dark for 30 min. After 30 min, the 96 well plate was placed under illumination for 1 hour (at 21° C.). A separate plate prepared at the same time was kept in the dark without illumination and served as dark control. Following illumination, bacterial suspensions were serially diluted and 10 μL of each dilution was spread uniformly on Tryptic Soy Agar (TSA) plates and placed in the dark in an incubator at 28° C. for 48 hours. After 48 hours, bacterial colonies were counted and results were log transformed (log colony forming units (CFU)/mL). The relative inactivation was determined by taking the difference between log CFU (PBS control) and log CFU (treatments). Sample Illumination was provided by LED lights (Heliospectra RX30) emitting about 1000 μmol/m^2/s photosynthetically active radiation (PAR). The modified Ce6 that were evaluated are the Ce6-mix-DMAE^15,17 amide, Ce6-bis-DMAE^15,17 amide and Ce6-mono-DMAE^15 amide.

[4] = system: Kentucky bluegrass (Poa pratensis); assay: Kentucky bluegrass tolerance to salt stress (turf quality); format: in vivo; details: 0.1%; 170 mM NaCl, 2 salt applications; scale 1-9 (1=dead, 9=healthy)
Procedure: Kentucky bluegrass (Poa pratensis) was grown under greenhouse conditions for ˜3 weeks. After 3 weeks, plants were sprayed with formulations and allowed to sit for 24 hours, after which the pots were placed in a 170 mM NaCl solution until the soil was saturated. The salt application was repeated again 7 days later for a total of 2 salt applications. Salinity stress was evaluated based on a turf quality scale of 1-9; where 1=dead, brown turf; 6=minimally acceptable turf quality (based on standards for golf courses or sports fields); and 9=dense, dark green turf (healthy). Data are average of 5 replicates.

[5] = system: Colletotrichum orbiculare ATC20767 (Cgm); assay: Control of fungal pathogen Cgm on Nicotiana benthamiana; format: in vivo; details: 0.05% + Surfactants (0.5% propylene glycol + 0.1% Pluronics F-127) (Table 14); host Nicotiana benthamiana
Procedure: Control of the fungal plant pathogen Colletotrichum orbiculare ATC20767 (Cgm) on the host plant Nicotiana benthamiana following treatment with modified Chlorin e6 compounds was assessed. Treatments were applied to N. benthamiana plants approximately 2 h prior to inoculation with a spore suspension of Cgm. Plants were then exposed to light for a 24-hour period followed by dark incubation until disease symptoms were evident on the water treated control plants. Once disease symptoms were evident, lesions were counted and leaf area measured in order to determine the number of lesions/cm^2 leaf area. Four replicate plants were used per treatment and plants were randomized under the light source. Illumination was provided by LED lights emitting about 180 μmol/m^2/s photosynthetically active radiation (PAR).

[6] = system: Pseudomonas syringae pv tabacci; assay: Control of bacterial pathogen Pst on Arabidopsis thaliana; format: in vivo; details: 0.05% + surfactants (0.5% propylene glycol + 0.1% Pluronics F-127); host Arabidopsis thaliana; yellow leaves/plant
Procedure: Arabidopsis thaliana plants were grown under 12 hours:12 hours, light:dark photoperiod, under LED lights (PAR 24 μmol m^−2 s^−1), at a temperature of 25° C.±3° C. and 65% relative humidity. After 3 weeks, plants were sprayed with formulations (50% dilution in water), allowed to dry for 2 h, after which Pseudomonas syringae pv tabacci (at OD0.08 diluted in 10 mM MgCl2) was sprayed. Plants were kept under plastic domes until symptoms develop. Disease severity was rated by counting the number of yellow leaves/plant. Data are average of 3 replicas.

[7] = Agar data, 10 uM, Dark (Table 5)
[8] = Agar data, 10 uM, Light (Table 5)
[9] = Light: 1 hour about 1000 μmol/m^2/s PAR after 30 min dark incubation, where no CFU were left, treatment set to 1 CFU/mL

`C=Cc1c(C)c2cc3nc(c(CC(=O)NCCNCCCC)c4[nH]c(cc5nc(cc1[nH]2)C(C)=C5CC)c(C)c4C(=O)O)[C@@H](CCC(=O)O)[C@@H]3C` [Ce6-mono-BAE^15 amide] was tested. Which inhibition at 10 µM [1, 7] did it give?
The inhibition at 10 µM was 49%.

And the inhibition at 10 µM [1, 8]?
The inhibition at 10 µM was 99%.

`C=Cc1c(C)c2cc3nc(c(CC(=O)[O-])c4[nH]c(cc5nc(cc1[nH]2)C(C)=C5CC)c(C)c4C(=O)[O-])[C@@H](CCC(=O)[O-])[C@@H]3C.[Na+].[Na+].[Na+]` [Ce6Na3] was tested. Which Inhibition [1, 7] did it give?
The Inhibition was 26%.

What about the Inhibition [1, 8] of the same molecule?
Its Inhibition is 74%.

What about the Inhibition ([1]; Light, 5 μM, agar plate) of the same molecule?
Its Inhibition is 39%.

What about the Inhibition ([1]; Light, 10 μM, agar plate) of the same molecule?
The Inhibition was 74%.

And the Inhibition ([1]; Light, 31 μM, agar plate)?
Its Inhibition is 99%.

What about the Inhibition ([1]; No Light, 5 μM, agar plate) of the same molecule?
Its Inhibition is 13%.

What about the Inhibition ([1]; No Light, 10 μM, agar plate) of the same molecule?
The Inhibition was 26%.

What about the Inhibition ([1]; No Light, 31 μM, agar plate) of the same molecule?
The Inhibition was 44%.

And the Inhibition ([2]; 10 uM, Dark)?
The Inhibition was −4%.

What about the Inhibition ([2]; 10 uM, Light) of the same molecule?
The Inhibition was 53%.

What about the Inhibition ([2]; 100 uM, Dark) of the same molecule?
Its Inhibition is 16%.

And the Inhibition ([2]; 100 uM, Light)?
Its Inhibition is 66%.

And the “Relative Inactivation (log[CFUcontrol mL^−1] − log[CFUtreatment mL^−1])” value ([3]; Dark control plate)?
The value was −0.03 ± 0.13.

What about the “Relative Inactivation (log[CFUcontrol mL^−1] − log[CFUtreatment mL^−1])” value [3, 9] of the same molecule?
Its value is 0.39 ± 0.29.

And the “Turf Quality” value [4]?
The value was 6.

For `C=Cc1c(C)c2cc3nc(c(CC(=O)NCCN(C)C)c4[nH]c(cc5nc(cc1[nH]2)C(C)=C5CC)c(C)c4C(=O)O)[C@@H](CCC(=O)O)[C@@H]3C` [Ce6-mono-DMAE^15 amide], which “Disease inhibition, %” value [5] is on record?
The value was 94%.

What about the “Disease inhibition, %” value [6] of the same molecule?
Its value is 56%.

What about the “Relative Inactivation (log[CFUcontrol mL^−1] − log[CFUtreatment mL^−1])” value ([3]; Dark control plate) of the same molecule?
Its value is 0.21 ± 0.33.

What about the “Relative Inactivation (log[CFUcontrol mL^−1] − log[CFUtreatment mL^−1])” value [3, 9] of the same molecule?
Its value is 7.98 ± 0.65.

And the “Killing of bacteria” value [3]?
Its value is “killed all bacteria”.

With `C=Cc1c(C)c2cc3nc(c(CC(=O)NCCN(C)C)c4[nH]c(cc5nc(cc1[nH]2)C(C)=C5CC)c(C)c4C(=O)O)[C@@H](CCC(=O)NCCN(C)C)[C@@H]3C` [Ce6-bis-DMAE^15,17 amide] as the molecule, how does the “Relative Inactivation (log[CFUcontrol mL^−1] − log[CFUtreatment mL^−1])” value ([3]; Dark control plate) read?
The value was 1.13 ± 0.42.

What about the “Relative Inactivation (log[CFUcontrol mL^−1] − log[CFUtreatment mL^−1])” value [3, 9] of the same molecule?
The value was 7.98 ± 0.65.

And the “Killing of bacteria” value [3]?
Its value is “killed all bacteria”.

With `C=Cc1c(C)c2cc3nc(c(CC(=O)NCCOP(=O)(O)O)c4[nH]c(cc5nc(cc1[nH]2)C(C)=C5CC)c(C)c4C(=O)O)[C@@H](CCC(=O)O)[C@@H]3C` [Ce6-mono-EP OA^15] as the molecule, how does the inhibition at 100 µM ([2]; 100 uM, Dark) read?
Its inhibition at 100 µM is -5%.

What about the inhibition at 100 µM ([2]; 100 uM, Light) of the same molecule?
Its inhibition at 100 µM is 71%.
